Results from ChEMBL document CHEMBL4138123, “Design, synthesis and biological evaluation of novel pyrazolochalcones as potential modulators of PI3K/Akt/mTOR pathway and inducers of apoptosis in breast cancer cells” (Eur J Med Chem, 2017).

Columns and labels:
Type in all cases: functional
M14 [1] = assay: Cytotoxicity against human M14 cells assessed as cell growth at 0.1 uM after 48 hrs by sulforhodamine B assay relative to control; conditions: M14, 48 h, read-out: Activity
IGROV-1 [2] = assay: Cytotoxicity against human IGROV1 cells assessed as cell growth at 100 uM after 48 hrs by sulforhodamine B assay relative to control; conditions: IGROV-1, 48 h, read-out: Activity
HL-60(TB) = assay: Cytotoxicity against human HL-60(TB) cells assessed as cell growth at 10 uM after 48 hrs by sulforhodamine B assay relative to control; conditions: HL-60, 48 h, read-out: Activity
NCI-H23 = assay: Cytotoxicity against human NCI-H23 cells assessed as cell growth at 1 uM after 48 hrs by sulforhodamine B assay relative to control; conditions: NCI-H23, 48 h, read-out: Activity
OVCAR-5 = assay: Cytotoxicity against human OVCAR5 cells assessed as cell growth at 100 uM after 48 hrs by sulforhodamine B assay relative to control; conditions: OVCAR-5, 48 h, read-out: Activity
A498 [3] = assay: Cytotoxicity against human A498 cells assessed as cell growth at 0.1 uM after 48 hrs by sulforhodamine B assay relative to control; conditions: A498, 48 h, read-out: Activity
UO-31 [4] = assay: Cytotoxicity against human UO31 cells assessed as cell growth at 100 uM after 48 hrs by sulforhodamine B assay relative to control; conditions: UO-31, 48 h, read-out: Activity
NCI-H226 = assay: Cytotoxicity against human NCI-H226 cells assessed as cell growth at 100 uM after 48 hrs by sulforhodamine B assay relative to control; conditions: NCI-H226, 48 h, read-out: Activity
RXF 393 = assay: Cytotoxicity against human RXF393 cells assessed as cell growth at 10 uM after 48 hrs by sulforhodamine B assay relative to control; conditions: RXF 393, 48 h, read-out: Activity
OVCAR-3 = assay: Cytotoxicity against human OVCAR3 cells assessed as cell growth at 1 uM after 48 hrs by sulforhodamine B assay relative to control; conditions: OVCAR-3, 48 h, read-out: Activity
786-0 = assay: Cytotoxicity against human 786-0 cells assessed as cell growth at 0.1 uM after 48 hrs by sulforhodamine B assay relative to control; conditions: 786-0, 48 h, read-out: Activity
SNB-19 = assay: Cytotoxicity against human SNB19 cells assessed as cell growth at 1 uM after 48 hrs by sulforhodamine B assay relative to control; conditions: SNB-19, 48 h, read-out: Activity
COLO 205 [5] = assay: Cytotoxicity against human COLO205 cells assessed as cell growth at 100 uM after 48 hrs by sulforhodamine B assay relative to control; conditions: COLO 205, 48 h, read-out: Activity
Malme-3M [6] = assay: Cytotoxicity against human MALME-3M cells assessed as cell growth at 1 uM after 48 hrs by sulforhodamine B assay relative to control; conditions: read-out: Activity
UO-31 [7] = assay: Cytotoxicity against human UO31 cells assessed as cell growth at 1 uM after 48 hrs by sulforhodamine B assay relative to control; conditions: UO-31, 48 h, read-out: Activity
SF-268 = assay: Cytotoxicity against human SF268 cells assessed as cell growth at 0.01 uM after 48 hrs by sulforhodamine B assay relative to control; conditions: SF-268, 48 h, read-out: Activity
MDA-MB-468 [8] = assay: Cytotoxicity against human MDA-MB-468 cells assessed as cell growth at 1 uM after 48 hrs by sulforhodamine B assay relative to control; conditions: MDA-MB-468, 48 h, read-out: Activity
NCI-H322M = assay: Cytotoxicity against human NCI-H322M cells assessed as cell growth at 0.1 uM after 48 hrs by sulforhodamine B assay relative to control; conditions: read-out: Activity
HOP-62 = assay: Cytotoxicity against human HOP62 cells assessed as cell growth at 0.01 uM after 48 hrs by sulforhodamine B assay relative to control; conditions: HOP-62, 48 h, read-out: Activity
M14 [9] = assay: Cytotoxicity against human M14 cells assessed as growth inhibition after 48 hrs by sulforhodamine B assay; conditions: M14, 48 h
SR = assay: Cytotoxicity against human SR cells assessed as cell growth at 0.1 uM after 48 hrs by sulforhodamine B assay relative to control; conditions: read-out: Activity
A498 [10] = assay: Cytotoxicity against human A498 cells assessed as cell growth at 100 uM after 48 hrs by sulforhodamine B assay relative to control; conditions: A498, 48 h, read-out: Activity
HT-29 = assay: Cytotoxicity against human HT-29 cells assessed as cell growth at 1 uM after 48 hrs by sulforhodamine B assay relative to control; conditions: HT-29, 48 h, read-out: Activity
HCT-15 = assay: Cytotoxicity against human HCT15 cells assessed as cell growth at 0.1 uM after 48 hrs by sulforhodamine B assay relative to control; conditions: HCT-15, 48 h, read-out: Activity
MDA-MB-468 [11] = assay: Cytotoxicity against human MDA-MB-468 cells assessed as cell growth at 0.1 uM after 48 hrs by sulforhodamine B assay relative to control; conditions: MDA-MB-468, 48 h, read-out: Activity
ACHN = assay: Cytotoxicity against human ACHN cells assessed as growth inhibition after 48 hrs by sulforhodamine B assay
MDA-MB-231 = assay: Cytotoxicity against human MDA-MB-231 cells assessed as cell growth at 100 uM after 48 hrs by sulforhodamine B assay relative to control; conditions: MDA-MB-231, 48 h, read-out: Activity
UO-31 [12] = assay: Cytotoxicity against human UO31 cells assessed as cell growth at 0.01 uM after 48 hrs by sulforhodamine B assay relative to control; conditions: UO-31, 48 h, read-out: Activity
M14 [13] = assay: Cytotoxicity against human M14 cells assessed as cell growth at 10 uM after 48 hrs by sulforhodamine B assay relative to control; conditions: M14, 48 h, read-out: Activity
MCF7 = assay: Cytotoxicity against human MCF7 cells assessed as growth inhibition after 48 hrs by sulforhodamine B assay; conditions: MCF7, 48 h
COLO 205 [14] = assay: Cytotoxicity against human COLO205 cells assessed as cell growth at 0.01 uM after 48 hrs by sulforhodamine B assay relative to control; conditions: COLO 205, 48 h, read-out: Activity
Malme-3M [15] = assay: Cytotoxicity against human MALME-3M cells assessed as cell growth at 10 uM after 48 hrs by sulforhodamine B assay relative to control; conditions: read-out: Activity
K562 = assay: Cytotoxicity against human K562 cells assessed as cell growth at 100 uM after 48 hrs by sulforhodamine B assay relative to control; conditions: K562, 48 h, read-out: Activity
Malme-3M [16] = assay: Cytotoxicity against human MALME-3M cells assessed as cell growth at 100 uM after 48 hrs by sulforhodamine B assay relative to control; conditions: read-out: Activity
HCC 2998 = assay: Cytotoxicity against human HCC2998 cells assessed as growth inhibition after 48 hrs by sulforhodamine B assay; conditions: HCC 2998, 48 h
IGROV-1 [17] = assay: Cytotoxicity against human IGROV1 cells assessed as cell growth at 0.1 uM after 48 hrs by sulforhodamine B assay relative to control; conditions: IGROV-1, 48 h, read-out: Activity
COLO 205 [18] = assay: Cytotoxicity against human COLO205 cells assessed as cell growth at 1 uM after 48 hrs by sulforhodamine B assay relative to control; conditions: COLO 205, 48 h, read-out: Activity

Compound `COc1ccc(C(=O)/C=C/c2cc(-c3cc(OC)c(OC)c(OC)c3)n[nH]2)cc1OC` has a growth at 0.1 µM (M14 [1]) of 98%, a growth at 100 µM (IGROV-1 [2]) of -73% and a growth at 10 µM (HL-60(TB)) of -41%. The growth at 1 µM (NCI-H23) was 93%, the growth at 100 µM (OVCAR-5) was -71% and the growth at 0.1 µM (A498 [3]) was 86%. For the same compound, the growth at 100 µM (UO-31 [4]) was -96%, the growth at 100 µM (NCI-H226) was -49% and the growth at 10 µM (RXF 393) was -98%. It also gave a growth at 1 µM (OVCAR-3) of 91%, a growth at 0.1 µM (786-0) of 94% and a growth at 1 µM (SNB-19) of 73%. It also gave a growth at 100 µM (COLO 205 [5]) of -75%, a growth at 1 µM (Malme-3M [6]) of 106% and a growth at 1 µM (UO-31 [7]) of 67%. It also gave a growth at 0.01 µM (SF-268) of 93%, a growth at 1 µM (MDA-MB-468 [8]) of 45% and a growth at 0.1 µM (NCI-H322M) of 101%. It also gave a growth at 0.01 µM (HOP-62) of 101%, an LC50 (concentration killing 50% of cells) (M14 [9]) of 7.38 µM and a TGI (M14 [9]) of 3.69 µM. It also gave a growth at 0.1 µM (SR) of 81%, a growth at 100 µM (A498 [10]) of -96% and a growth at 1 µM (HT-29) of 88%. It also gave a growth at 0.1 µM (HCT-15) of 98%, a growth at 0.1 µM (MDA-MB-468 [11]) of 89% and an LC50 (ACHN) of 5.75 µM. The TGI (ACHN) was 3.09 µM, the growth at 100 µM (MDA-MB-231) was -84% and the growth at 0.01 µM (UO-31 [12]) was 86%. It also gave a growth at 10 µM (M14 [13]) of -72%, an LC50 (MCF7) of 5.72 µM and a TGI (MCF7) of 1.95 µM. It also gave a growth at 0.01 µM (COLO 205 [14]) of 107%, a growth at 10 µM (Malme-3M [15]) of -82% and a growth at 100 µM (K562) of -15%. For the same compound, the growth at 100 µM (Malme-3M [16]) was -81%, the LC50 (HCC 2998) was 6.7 µM and the TGI (HCC 2998) was 3.78 µM. It also gave a growth at 0.1 µM (IGROV-1 [17]) of 96% and a growth at 1 µM (COLO 205 [18]) of 95%.
